Consider one compound from patent US20130190370A1, “Novel Tetrahydronaphalene Antagonists to the Thromboxane A2 (TP) Receptor” (The Trustees of the University of Pennsylvania, priority 2010, published 2013).

The target in data set [1] is T1, mouse TP receptor (Mus musculus, UniProt P30987).
T1 construct: expressed in transfected cells
T1 sequence (P30987 1-341): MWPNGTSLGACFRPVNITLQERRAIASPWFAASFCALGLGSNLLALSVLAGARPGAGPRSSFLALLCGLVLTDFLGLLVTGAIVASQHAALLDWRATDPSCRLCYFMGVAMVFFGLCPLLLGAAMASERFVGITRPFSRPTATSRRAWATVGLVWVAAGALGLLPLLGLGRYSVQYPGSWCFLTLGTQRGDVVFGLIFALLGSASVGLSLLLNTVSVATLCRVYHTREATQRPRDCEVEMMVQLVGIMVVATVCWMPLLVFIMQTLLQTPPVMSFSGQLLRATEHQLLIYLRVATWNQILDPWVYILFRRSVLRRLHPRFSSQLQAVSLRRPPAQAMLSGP
In words: IP1 functional HTRF assay, mouse TP receptor. Format: cell-based. The settings on record: I-BOP stimulated IP1. How it is done:
(§1) Functional activity of the TP receptor was measured by homogenous time-resolved fluorescence (HTRF) (IP-One Tb, Cisbio, Bedford, Mass., USA). QBI-HEK 293A (MP Biomedicals, Solon, Ohio, USA) cells were transfected with human TP receptor or mouse TP receptor cDNAs cloned into the pcDNA5/TO vector (Invitrogen, Carlsbad, Calif., USA), and stable transformants were selected. Cells were plated at 200,000 cells/mL in DMEM containing 4.5 g/L glucose (Invitrogen, Carlsbad, Calif., USA), 10% fetal bovine serum, L-glutamine, and penicillin/streptomycin into 384-well plates (Grenier Bio-One, Monroe, N.C., USA), followed by incubation for 16 hours at 37° C. with 5% CO2. Culture media was removed and cells were then incubated for 15 min at 37° C. with 5% CO2 in 10 mM Hepes, 1 mM CaCl2, 0.4 mM MgCl2, 4.2 mM KCl, 146 mM NaCl, 5.5 mM glucose, 50 mM LiCl, pH 7.4 (stimulation buffer) containing varying concentrations of test antagonist. I-BOP ([1S-[1α,2α(Z),3β(1E,3S*),4α]]-7-[3-[3-hydroxy-4-(4-iodophenoxy)-1-butenyl]-7-oxabicyclo[2.2.1]hept-2-yl]-5-heptenoic acid) (Cayman Chemicals, Ann Arbor, Mich., USA) was added at a final concentration of 1.6 nM in stimulation buffer and incubated for 1 hour at 37° C. with 5% CO2. […] Plates were then read on a Spectramax M5 microplate reader (Molecular Devices, Sunnyvale, Calif., USA). Data are expressed as the ratio of 665 nm/620 nm fluorescence. […]
In general terms: TR-FRET usually uses a lanthanide donor and a delayed reading to cut background.

Data set [2] deals with T2, human TP receptor (Homo sapiens, UniProt P21731).
T2 construct: expressed in transfected cells
T2 sequence (P21731 1-343): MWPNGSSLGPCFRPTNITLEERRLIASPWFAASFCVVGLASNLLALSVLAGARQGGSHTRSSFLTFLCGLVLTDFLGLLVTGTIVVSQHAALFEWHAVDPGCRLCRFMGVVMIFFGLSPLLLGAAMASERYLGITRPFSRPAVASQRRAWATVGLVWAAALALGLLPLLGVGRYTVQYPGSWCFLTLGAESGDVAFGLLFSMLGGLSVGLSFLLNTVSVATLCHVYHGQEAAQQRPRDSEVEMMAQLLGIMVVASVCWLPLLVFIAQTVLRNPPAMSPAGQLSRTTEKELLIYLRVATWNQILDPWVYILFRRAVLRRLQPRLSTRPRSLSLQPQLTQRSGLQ
Nature of the data set: Radioligand binding assay (3H-SQ29,548), human TP receptor. The note with it: hTP receptor. The protocol: (§2) QBI-HEK 293A cells expressing human or mouse TxA2 (TP) receptor were grown as described previously and harvested in phosphate-buffered saline with 1 mM EDTA. The cell pellet was homogenized in a glass homogenizer in 20 mM Hepes, 1 mM EGTA, 0.5 mM DTT with protease inhibitor cocktail. The homogenate was initially centrifuged at 1000×g for 10 minutes at 8° C. to remove cell debris. The homogenate was then centrifuged in a Beckman L8-70M ultracentrifuge (Beckman-Coulter, Brea, Calif., USA) at 21,000 rpm for 30 minutes at 4° C., and the pellet was resuspended in 20 mM Hepes, 1 mM EGTA, 100 mM NaCl. Membrane preparations were normalized to protein level as determined with a BCA assay (ThermoFisher, Rockland, Ill.) and stored at −80° C.
(§3) Test antagonists were incubated at 10 different concentrations with 25 μg membrane and 25 nM ^3H-SQ29,548 (PerkinElmer, Waltham, Mass., USA) in 50 mM Tris, 4 mM CaCl2, 0.1% ascorbic acid pH 7.5 for 2 hours at 25° C. in 96-well polystyrene plates. Separation of bound from free radioligand was accomplished by rapid vacuum filtration onto 96-well GF/B filter plates (PerkinElmer, Waltham, Mass., USA). Filters were washed 8 times in 50 mM Tris, pH 6.9 and allowed to dry for 16 hours, Plates were sealed and filters dissolved in 50 μL Betaplate Scintillation fluid (PerkinElmer, Waltham, Mass., USA) and read on a scintillation counter. Data are presented as percent total binding as calculated by a minimum of 3 wells containing membrane and ^3H-SQ29,548 without antagonist.
(§4) Equilibrium dissociation constants (Kd), IC50, and Schild regression analyses was performed with GraphPad Prism software (GraphPad Software Inc., La Jolla, Calif., USA).
(§5) To facilitate the characterization of the new compounds, cell-based TP receptor functional assays were optimized. HEK293 clones have been produced that stably express the human (hTP) or mouse (mTP) TP receptor (a isoform), and treatment of these clones with I-BOP ([1S-[1α,2α(Z),3β(1E,3S*),4α]]-7-[3-[3-hydroxy-4-(4-iodophenoxy)-1-butenyl]-7-oxabicyclo[2.2.1]hept-2-yl]-5-heptenoic acid) results in increased production of inositol triphosphate (IP3) (Knezevic, et al., 1993, Blood 82:A156; Shenker, et al., 1991, J Biol Chem 266:9309-9313; Huang, et al., 2004, Cell Signal 16:521-533) which can be quantified by measuring the breakdown product, inositol monophosphates (IP1), using a commercial time-resolved fluorescence assay. […] A radioligand binding assay was also developed to allow for the determination of binding affinities of compounds at the hTP and mTP receptors.

Data set [3] deals with T1, mouse TP receptor. Nature of the data set: Radioligand binding assay (3H-SQ29,548), mouse TP receptor. The note with it: mTP receptor. The protocol: as §2, §3, §4, §5
For data set [4], the target named is T2, human TP receptor. In words: IP1 functional HTRF assay, human TP receptor. Type of data set: cell-based. The settings on record: I-BOP stimulated IP1. The protocol:
as §1

A short description of data set [5]: Pro-drug study: plasma levels of compound and carboxylic acid hydrolysis product (51280) by LC-MS/MS. Format: in vivo. The note with it: female mice, 5 mg/kg, 1 h after injection. How it is done: Ester and amide examples can serve as pro-drugs to release the potent carboxylic acid TP receptor antagonist CNDR-51280. Compounds in were administered at 5 mg/kg to female mice, and levels of the compound and the carboxylic acid hydrolysis product (51280) were evaluated by LC-MS/MS 1 h after injection (Table 3).

Structures are written as SMILES.

Take `O=C(O)CCc1cccc2c1CCC(NS(=O)(=O)c1ccc(Cl)cc1)C2` (centres unmarked) [Compound 51280, 3-(6-(4-Chloroplienyistilfonamido)-5,6,7,8-tetrahydronaplithalen-1-yl)propanaic acid]: the “antagonist activity” value at mouse TP receptor [1] and at human TP receptor [4] was “potent antagonist” throughout. In addition, the “affinity for TP receptor” value on human TP receptor [2] and on mouse TP receptor [3] was “high affinity” each time. Further, the “Plasma (compound)” value in data set [5] is reported as 10376 (+/− 3480) nM.
